These results are taken from PubChem BioAssay (NCI).

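Compound exposure: 48 hours, 5 concentrations, 96-well plates. TGI: concentration producing complete growth inhibition.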

Among the test systems are ACHN renal; CCRF-CEM leukemia; HOP-92 NSCLC; HT29 colon; K-562 leukemia; OVCAR-3 ovarian; SF-295 CNS; SNB-19 CNS; SR leukemia; UACC-257 melanoma; MCF7 breast; MDA-MB-435; NCI/ADR-RES ovarian; T-47D breast.
Holding throughout (assay): NCI-60 cell line screen, 48 h

Consider `CC(C)(CN1CCCCC1)C(=O)/C=C/c1ccc(Br)cc1`, for which the TGI with ACHN renal came out at 14.5 µM; in the assay on CCRF-CEM leukemia, 9.34 µM; in the assay with HOP-92 NSCLC, 4.1 µM; in the assay with HT29 colon, 12.6 µM; in the assay with K-562 leukemia, 8.95 µM; in the assay with OVCAR-3 ovarian it was 5.51 µM. For the same compound, the TGI in the assay on SF-295 CNS is 17.4 µM; in the assay with SNB-19 CNS, 4.75 µM; in the assay on SR leukemia, 7.68 µM; with UACC-257 melanoma, 20.3 µM.
Take `Cc1cc(O)c(/C=N/C(N)=S)c(=O)o1`: the TGI is over 100 µM in the assay on ACHN renal; 84.4 µM in the assay with CCRF-CEM leukemia; over 100 µM with HOP-92 NSCLC; over 100 µM with MCF7 breast; over 100 µM with MDA-MB-435; over 100 µM in the assay with NCI/ADR-RES ovarian. The TGI in the assay on OVCAR-3 ovarian, in the assay on SF-295 CNS, with SNB-19 CNS and in the assay on UACC-257 melanoma was over 100 µM each time.
Take `Cc1cccc2sc(NC(=O)NS(=O)(=O)n3cnc4ccccc43)nc12`: the TGI was over 100 µM in the assay on ACHN renal; over 100 µM with CCRF-CEM leukemia; 38.7 µM in the assay with HOP-92 NSCLC; over 100 µM with HT29 colon; over 100 µM in the assay on MCF7 breast; over 100 µM in the assay on MDA-MB-435. For the same compound, the TGI in the assay on NCI/ADR-RES ovarian was over 100 µM; in the assay with OVCAR-3 ovarian, 46.8 µM; in the assay with SF-295 CNS, 50.1 µM; in the assay on SNB-19 CNS, over 100 µM; in the assay on T-47D breast it was 62.6 µM; in the assay on UACC-257 melanoma, 74.8 µM.
For `CC(C)C(Cl)CCC(C)(Cl)C(=O)CBr` (stereo unspecified), the TGI was 19.3 µM with ACHN renal; over 100 µM with CCRF-CEM leukemia; 23.8 µM in the assay with HOP-92 NSCLC; 11.6 µM with HT29 colon; 4.53 µM in the assay on MCF7 breast; 14 µM in the assay on MDA-MB-435. Besides, the TGI is 23.6 µM in the assay on NCI/ADR-RES ovarian; 16.4 µM in the assay with OVCAR-3 ovarian; 41.2 µM with SF-295 CNS; over 67.3 µM in the assay on SNB-19 CNS; 6.27 µM in the assay with T-47D breast; 16.6 µM with UACC-257 melanoma.
Regarding `CN1CCOC(C(NC(=O)c2ccccc2)c2ccccc2)C1=O` (stereo unspecified), the TGI in the assay on ACHN renal, in the assay on CCRF-CEM leukemia, in the assay on HOP-92 NSCLC, with HT29 colon, with K-562 leukemia and with OVCAR-3 ovarian was over 100 µM throughout. Besides, the TGI with SF-295 CNS, with SNB-19 CNS, with SR leukemia and in the assay on UACC-257 melanoma was over 100 µM throughout.
Turning to `COc1ccc(OC)c2sc(N3C(=O)/C(=C/c4cccc(Oc5ccccc5)c4)N=C3c3ccccc3)nc12`, the TGI in the assay with ACHN renal, with CCRF-CEM leukemia, in the assay on HOP-92 NSCLC, in the assay with HT29 colon, in the assay on K-562 leukemia and in the assay with MCF7 breast was over 100 µM each time. Further, the TGI in the assay with MDA-MB-435, in the assay with NCI/ADR-RES ovarian, in the assay on OVCAR-3 ovarian, with SF-295 CNS, in the assay with SNB-19 CNS and in the assay on T-47D breast was over 100 µM throughout. In the assay on UACC-257 melanoma, this compound came in with a TGI of over 100 µM.
`C1CCC(N=C2N(C3CCCCC3)C(=NC3CCCCC3)N2C2CCCCC2)CC1`: the TGI with ACHN renal, with CCRF-CEM leukemia, in the assay on HOP-92 NSCLC, with HT29 colon, with K-562 leukemia and in the assay on OVCAR-3 ovarian was over 100 µM in each case. In addition, the TGI in the assay on SF-295 CNS, with SNB-19 CNS, in the assay on SR leukemia and in the assay with UACC-257 melanoma was over 100 µM throughout.
Turning to `COc1ccc(/C(Nc2ccccc2)=C(\CCl)c2ccccc2)cc1OC`, the TGI in the assay on ACHN renal is over 100 µM; in the assay with CCRF-CEM leukemia, 65.5 µM; with HOP-92 NSCLC, over 100 µM; in the assay with HT29 colon, over 100 µM; with K-562 leukemia it was 64.9 µM; in the assay on MCF7 breast, over 100 µM. Moreover, the TGI in the assay on MDA-MB-435, in the assay on NCI/ADR-RES ovarian, in the assay on OVCAR-3 ovarian, in the assay on SF-295 CNS, with SNB-19 CNS and with T-47D breast was over 100 µM throughout. Besides, the TGI in the assay with UACC-257 melanoma was over 100 µM.
As for `O=C(c1ccc(Cl)cc1)N(C(=O)N1CCCCC1)c1ccccc1`, the TGI in the assay with ACHN renal, in the assay with CCRF-CEM leukemia, in the assay with HT29 colon, in the assay with K-562 leukemia, in the assay with MCF7 breast and with MDA-MB-435 was over 100 µM in each case. The TGI was over 100 µM with NCI/ADR-RES ovarian, over 100 µM in the assay with OVCAR-3 ovarian, over 100 µM in the assay with SNB-19 CNS and 89 µM with T-47D breast.
As for `CSc1nncc(-c2cc3c(c(SC)n2)CCCC3)n1`, the TGI with ACHN renal, in the assay on CCRF-CEM leukemia, in the assay with HT29 colon, with K-562 leukemia, in the assay with MDA-MB-435 and in the assay on NCI/ADR-RES ovarian was over 100 µM throughout. Besides, the TGI in the assay on OVCAR-3 ovarian, in the assay with SF-295 CNS, in the assay on SNB-19 CNS, in the assay on SR leukemia and in the assay with UACC-257 melanoma was over 100 µM throughout.
On to `CCOC(=O)C1S(=O)(=O)OCCOS1(=O)=O`, for which the TGI with CCRF-CEM leukemia, with HOP-92 NSCLC, in the assay on HT29 colon, in the assay with K-562 leukemia, with OVCAR-3 ovarian and in the assay on SF-295 CNS was over 100 µM throughout. In addition, the TGI in the assay on SNB-19 CNS, with SR leukemia and with UACC-257 melanoma was over 100 µM in each case.
In the case of `NNc1nnc(CCCCCCCCc2nnc(NN)n2N)n1N`, the TGI in the assay on ACHN renal, in the assay on CCRF-CEM leukemia, in the assay on HOP-92 NSCLC, with HT29 colon, in the assay on K-562 leukemia and with MCF7 breast was over 100 µM in each case. The TGI in the assay on MDA-MB-435, in the assay on NCI/ADR-RES ovarian, in the assay with SF-295 CNS, in the assay with SNB-19 CNS and in the assay with UACC-257 melanoma was over 100 µM each time.
